Columns and labels:
AQP-4 [1] = settings: rat model of epilepsy; cited from earlier work
[2] = system: rat traumatic brain injury model; settings: cited from earlier work
AQP-2 = molecular target: T1, AQP-2 (Homo sapiens, UniProt P41181); test: Kinetic screening assay, cells overexpressing AQP-2; format: cell-based
T1 construct: expressed in transfected cells
T1 sequence (P41181 1-271): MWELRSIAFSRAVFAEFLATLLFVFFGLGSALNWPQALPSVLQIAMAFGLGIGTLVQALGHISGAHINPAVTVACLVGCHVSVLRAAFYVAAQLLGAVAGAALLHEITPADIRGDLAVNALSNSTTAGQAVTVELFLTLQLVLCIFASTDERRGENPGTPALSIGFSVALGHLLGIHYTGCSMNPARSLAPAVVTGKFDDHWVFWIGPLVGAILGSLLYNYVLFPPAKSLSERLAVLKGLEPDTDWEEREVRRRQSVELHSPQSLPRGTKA
From the text: Effects of candidate AQP-4 inhibitors on cell swelling in vitro. Kinetic screening assay: In order to assess the effects of the resulting 50 compounds selected from in silico screening efforts on cell swelling, a calcein-fluorescence assay that measures plasma membrane water permeability was used. Alvarez-Leefmans et al. established a technique to estimate changes in cell volume as a function of changes in concentration using a calcein-AM, a non-fluorescent and membrane-permeant dye.^53 After entering the cell, calcein-AM is converted to calcein by removal of the acetoxymethyl group (AM) by intracellular esterases. […] The fluorescence signal is calibrated by brief exposures of the calcein-loaded cells to, for example, 15% hypotonic and 15% hypertonic solutions and the average signal intensity from the cell is detected. […] The test compounds were then added (4-9 μM) and the fluorescence was measured using a Biotek plate reader (excitation 490 nm and emission 515 nm). Relative fluorescence intensity (RfU) was calculated as the fluorescence intensity of each well divided by the mean fluorescence intensity of cells treated with DMSO (control). […]
AQP-2 DHA-35. Using the kinetic screening assay described hereinabove, cells overexpressing AQP-2 were screened with test compounds of interest and their fluorescence signal were evaluated. […]

AQP-11 = molecular target: T2, AQP-11 (Homo sapiens, UniProt Q8NBQ7); test: Kinetic screening assay, cells overexpressing AQP-11; format: cell-based
T2 construct: expressed in transfected cells
T2 sequence (Q8NBQ7 1-271): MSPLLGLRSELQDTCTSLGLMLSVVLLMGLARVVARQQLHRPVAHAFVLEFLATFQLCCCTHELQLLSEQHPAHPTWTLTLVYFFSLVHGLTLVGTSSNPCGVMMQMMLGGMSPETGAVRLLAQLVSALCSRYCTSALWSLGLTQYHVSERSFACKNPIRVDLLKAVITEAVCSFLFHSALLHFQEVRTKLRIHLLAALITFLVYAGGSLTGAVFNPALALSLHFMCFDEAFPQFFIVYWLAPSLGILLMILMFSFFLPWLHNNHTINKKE

AQP-6 = molecular target: T3, AQP-6 (Homo sapiens, UniProt Q13520); test: Kinetic screening assay, cells overexpressing AQP-6; format: cell-based
T3 construct: expressed in transfected cells
T3 sequence (Q13520 1-282): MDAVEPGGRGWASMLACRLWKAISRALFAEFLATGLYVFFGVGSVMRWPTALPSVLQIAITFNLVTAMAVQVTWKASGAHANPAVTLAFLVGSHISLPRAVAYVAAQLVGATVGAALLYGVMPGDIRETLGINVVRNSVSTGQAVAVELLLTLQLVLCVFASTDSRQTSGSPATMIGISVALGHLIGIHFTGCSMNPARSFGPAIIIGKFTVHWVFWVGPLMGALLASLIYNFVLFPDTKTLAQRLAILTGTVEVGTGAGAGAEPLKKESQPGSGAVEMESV

AQP-4 [3] = settings: pre-treatment, mouse model of stroke; cited from earlier work

For `CC(=O)Nc1nnc(S(N)(=O)=O)s1` [Acetazolamide, acetazolamide], the “AQP-4 inhibition in vivo” value (AQP-4 [1]) is listed as “inhibit AQP-4” and the edema [2] is listed as “reduce edema”.
In the case of `CSc1ccc(C(=O)NC(c2ccc3c(c2)CCO3)[C@H]2C[C@@H](O)C2)cc1` (stereo partly shown) [DHA-35], the “AQP-2 activity, fluorescence signal” value (AQP-2) is reported as “inhibitor”.
In the case of `C=CCn1nc(C(=O)N2CCCCCC2)c2c1CCC(NCCCN1CCCC1=O)C2` (stereo not shown) [DHA-6], the “AQP-11 activity, fluorescence signal” value (AQP-11) is reported as “modulators”.
In the case of `COCC(C)n1c(CCCC(=O)N2CCC3(CC2)CNC(=O)C3)nc2cccnc21` (stereo not shown) [DHA-36], the “AQP-6 activity, fluorescence signal” value (AQP-6) is reported as “inhibitor”.
In the case of `Cc1onc(-c2ccccc2)c1C(=O)NCc1nnc(SCc2ccccc2Cl)n1CC(C)C` [DHA-37], the “AQP-11 activity, fluorescence signal” value (AQP-11) is reported as “modulators”.
In the case of `O=C(Nc1nncs1)c1cccnc1` [TGN-020, 2-(nicotinamide)-1,3,4-thiadiazole], the “edema and infarct size” value (AQP-4 [3]) is listed as “reduce edema and infarct size”.
